Assay [1] in a line: Antiproliferative activity against mouse 32D cells expressing FLT3-ITD-D835Y assessed as cell growth inhibition. It is filed as functional.
Assay [2] can be described thus: Antiproliferative activity against mouse 32D cells expressing FLT3-ITD assessed as cell growth inhibition. It counts as functional, cell-based.
Assay [3] is described as follows: Antiproliferative activity against mouse 32D cells expressing FLT3-D835H assessed as cell growth inhibition. It counts as functional.
A short description of assay [4]: Antiproliferative activity against mouse 32D cells expressing FLT3-ITD-Y842H assessed as cell growth inhibition. It counts as functional.
Assay [5] is described as follows: Antiproliferative activity against mouse 32D cells expressing FLT3-D835Y assessed as cell growth inhibition. It is filed as functional, cell-based.
Assay [6] in a line: Antiproliferative activity against mouse 32D cells expressing FLT3-ITD-Y842C assessed as cell growth inhibition. It is filed as functional.
Assay [7] in a line: Antiproliferative activity against mouse 32D cells expressing FLT3-ITD-F691L assessed as cell growth inhibition. It is filed as functional.
In assay [8] the target is Tyrosine-protein kinase ABL1 (Homo sapiens, UniProt P00519). Nature of the assay: Inhibition of ABL1 (unknown origin).
In assay [9] the target is Platelet-derived growth factor receptor alpha (Homo sapiens, UniProt P16234). The assay can be described thus: Inhibition of PDGFR alpha (unknown origin).
The target of assay [10] is NT-3 growth factor receptor (Homo sapiens, UniProt Q16288). The assay can be described thus: Inhibition of TrkC (unknown origin).
Assay [11] addresses Tyrosine-protein kinase Fgr (Homo sapiens, UniProt P09769). Nature of the assay: Inhibition of FGR (unknown origin).
Assay [12] has as its target T1, Receptor-type tyrosine-protein kinase FLT3 (Homo sapiens, UniProt P36888).
T1 sequence (P36888 whole entry): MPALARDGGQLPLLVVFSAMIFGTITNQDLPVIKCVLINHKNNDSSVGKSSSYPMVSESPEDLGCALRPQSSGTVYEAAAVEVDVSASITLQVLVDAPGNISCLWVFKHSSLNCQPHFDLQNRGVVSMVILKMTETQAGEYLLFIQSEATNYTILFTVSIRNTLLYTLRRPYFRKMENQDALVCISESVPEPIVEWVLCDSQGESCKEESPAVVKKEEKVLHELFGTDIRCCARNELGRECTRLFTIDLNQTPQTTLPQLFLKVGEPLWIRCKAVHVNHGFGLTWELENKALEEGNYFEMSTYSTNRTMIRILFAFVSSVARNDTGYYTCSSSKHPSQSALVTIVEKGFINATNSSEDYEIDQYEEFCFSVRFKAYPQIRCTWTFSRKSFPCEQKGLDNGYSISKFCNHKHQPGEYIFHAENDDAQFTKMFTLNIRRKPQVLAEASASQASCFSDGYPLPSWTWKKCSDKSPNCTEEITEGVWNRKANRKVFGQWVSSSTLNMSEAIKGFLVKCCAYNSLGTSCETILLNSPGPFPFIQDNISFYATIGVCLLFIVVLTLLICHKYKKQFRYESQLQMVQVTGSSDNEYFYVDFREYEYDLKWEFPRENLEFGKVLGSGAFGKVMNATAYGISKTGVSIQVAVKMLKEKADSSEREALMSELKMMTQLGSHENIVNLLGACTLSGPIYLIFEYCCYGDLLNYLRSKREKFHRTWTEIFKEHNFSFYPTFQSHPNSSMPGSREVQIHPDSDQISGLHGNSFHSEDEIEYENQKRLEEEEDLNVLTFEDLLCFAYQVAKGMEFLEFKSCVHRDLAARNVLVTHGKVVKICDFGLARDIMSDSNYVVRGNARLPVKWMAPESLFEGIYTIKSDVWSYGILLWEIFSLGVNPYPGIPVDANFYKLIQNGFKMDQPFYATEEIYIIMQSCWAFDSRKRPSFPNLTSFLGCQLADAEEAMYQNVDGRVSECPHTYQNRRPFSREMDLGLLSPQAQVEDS
Description: Inhibition of FLT3 (unknown origin)

The target of assay [13] is Cyclin-dependent kinase 6 (Homo sapiens, UniProt Q00534). Nature of the assay: Inhibition of CDK6 (unknown origin).
Assay [14] addresses Receptor-type tyrosine-protein kinase FLT3 (Homo sapiens, UniProt P36888, D835Y). Nature of the assay: Binding affinity to FLT3-D835Y mutant (unknown origin) assessed as dissociation constant.
The target in assay [15] is Cyclin-dependent kinase 4 (Homo sapiens, UniProt P11802). The assay can be described thus: Inhibition of CDK4 (unknown origin).
For assay [16], the target named is Cyclin-dependent kinase 2 (Homo sapiens, UniProt P24941). Nature of the assay: Inhibition of CDK2 (unknown origin).
The subject of assay [17] is MV4-11. Nature of the assay: Cytotoxicity against human MV4-11 cells incubated for 72 hrs. It is filed as functional, cell-based. To be noted: MV4-11, 72 h.
Assay [18] deals with Receptor-type tyrosine-protein kinase FLT3 (Homo sapiens, UniProt P36888, D835H). The assay can be described thus: Binding affinity to FLT3-D835H mutant (unknown origin) assessed as dissociation constant.
Assay [19] addresses Receptor-type tyrosine-protein kinase FLT3 (Homo sapiens, UniProt P36888, ITD). The assay can be described thus: Inhibition of FLT3-ITD (unknown origin).
Assay [20] relates to MV4-11. Nature of the assay: Cytotoxicity against human MV4-11 cells […] incubated for 72 hrs. To be noted: MV4-11, 72 h. It is filed as functional, cell-based.
In assay [21] the test system is BaF3. The assay can be described thus: cells. To be noted: Mus musculus.
Assay [22] deals with BaF3. The assay can be described thus: cells. To be noted: Mus musculus. This is another data set of the same source.
In assay [23] the test system is BaF3. The assay can be described thus: cells. To be noted: Mus musculus. The source holds these as a separate data set.
Assay [24] concerns BaF3. Nature of the assay: cells. To be noted: Mus musculus. This is another data set of the same source.
Assay [25] relates to BaF3. Nature of the assay: cells. As to conditions: Mus musculus. This is another data set of the same source.
The test system of assay [26] is MOLM-14. Nature of the assay: cells. To be noted: Homo sapiens.
Description: Antiproliferative activity against human MOLM-14 cells
The subject of assay [27] is MV4-11. Nature of the assay: cells. As to conditions: Homo sapiens.
Assay [28] deals with BaF3. Nature of the assay: cells. As to conditions: Mus musculus. The source holds these as a separate data set.
Description: Antiproliferative activity against mouse BaF3 cells expressing FLT3-D835Y
For assay [29], the system named is MOLM-14. Nature of the assay: cells. As to conditions: Homo sapiens. The source holds these as a separate data set.
Description: Antiproliferative activity against human MOLM-14 cells expressing F691L
In assay [30] the test system is BaF3. The assay can be described thus: Cytotoxicity against mouse BaF3 cells expressing FLT3-ITD measured after 72 hrs by cell titre glo assay. It is filed as functional, cell-based. To be noted: BaF3, 72 h.
In assay [31] the test system is BaF3. The assay can be described thus: Cytotoxicity against mouse BaF3 cells expressing FLT3-ITD-D835H measured after 72 hrs by cell titre glo assay. It counts as functional, cell-based. To be noted: BaF3, 72 h.
Assay [32] has as its system BaF3. Nature of the assay: Cytotoxicity against mouse BaF3 cells expressing FLT3-ITD-F691L measured after 72 hrs by cell titre glo assay. It counts as functional, cell-based. To be noted: BaF3, 72 h.
The test system of assay [33] is MOLM-13. The assay can be described thus: Cytotoxicity against human MOLM-13 cells expressing FLT3-D835Y measured after 72 hrs by cell titre glo assay. It is filed as functional, cell-based. To be noted: MOLM-13, 72 h.
Assay [34] concerns BaF3. Nature of the assay: Cytotoxicity against mouse BaF3 cells expressing FLT3-ITD-D835Y measured after 72 hrs by cell titre glo assay. It is filed as functional, cell-based. To be noted: BaF3, 72 h.
Assay [35] relates to MOLM-13. Nature of the assay: Cytotoxicity against human MOLM-13 cells measured after 72 hrs by cell titre glo assay. To be noted: MOLM-13, 72 h. It counts as functional, cell-based.
In assay [36] the test system is MOLM-13. The assay can be described thus: Antiproliferative activity against drug resistant human MOLM-13 cells incubated for 72 hrs by MTS assay. It is filed as functional.
For assay [37], the system named is MOLM-13. The assay can be described thus: Antiproliferative activity against human MOLM-13 cells incubated for 72 hrs by MTS assay. It counts as functional. For orientation: Tetrazolium dyes change colour on reduction, which living cells bring about.
Assay [38] concerns BaF3. Nature of the assay: cells. To be noted: Mus musculus. This is another data set of the same source.
Assay [39] deals with BaF3. The assay can be described thus: cells. As to conditions: Mus musculus. This is another data set of the same source.
Assay [40] has as its target Leukocyte tyrosine kinase receptor (Homo sapiens) (UniProt P29376). Nature of the assay: Inhibition of LTK (unknown origin).

Our source for the GI50, IC50 and Kd values is ChEMBL document CHEMBL5149977, “FLT3 Inhibitors in Acute Myeloid Leukemia: Challenges and Recent Developments in Overcoming Resistance” (J Med Chem, 2021).

What is called GI50 is the concentration that inhibits growth by half. What is called IC50 is the point on the concentration scale where inhibition reaches its midpoint. By Kd is commonly meant a measure of binding affinity in units of concentration.

Sequence of NT-3 growth factor receptor (Q16288 whole entry): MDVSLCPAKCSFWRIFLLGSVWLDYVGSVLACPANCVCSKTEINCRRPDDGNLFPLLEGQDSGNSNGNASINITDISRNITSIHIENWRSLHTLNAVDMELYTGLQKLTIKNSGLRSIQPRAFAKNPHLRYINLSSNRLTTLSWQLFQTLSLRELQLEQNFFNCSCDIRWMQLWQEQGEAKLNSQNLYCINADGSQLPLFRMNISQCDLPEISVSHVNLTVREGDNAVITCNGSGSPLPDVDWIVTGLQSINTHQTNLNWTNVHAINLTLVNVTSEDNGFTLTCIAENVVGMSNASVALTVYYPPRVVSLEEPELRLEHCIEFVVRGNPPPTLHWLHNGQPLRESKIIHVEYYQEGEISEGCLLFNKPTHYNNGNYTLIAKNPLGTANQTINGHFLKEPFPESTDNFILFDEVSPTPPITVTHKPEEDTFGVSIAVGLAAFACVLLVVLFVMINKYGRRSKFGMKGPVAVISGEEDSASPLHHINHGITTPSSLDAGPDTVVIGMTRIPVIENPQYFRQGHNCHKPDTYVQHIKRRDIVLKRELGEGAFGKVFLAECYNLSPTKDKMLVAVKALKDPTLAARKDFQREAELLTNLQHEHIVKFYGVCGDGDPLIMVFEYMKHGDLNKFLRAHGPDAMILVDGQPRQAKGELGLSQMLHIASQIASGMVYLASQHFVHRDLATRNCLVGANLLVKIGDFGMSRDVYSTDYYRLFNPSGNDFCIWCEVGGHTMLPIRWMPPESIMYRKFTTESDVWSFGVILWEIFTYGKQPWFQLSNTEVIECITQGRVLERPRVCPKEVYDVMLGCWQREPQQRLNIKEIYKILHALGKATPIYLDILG
Sequence of Tyrosine-protein kinase Fgr (P09769 whole entry): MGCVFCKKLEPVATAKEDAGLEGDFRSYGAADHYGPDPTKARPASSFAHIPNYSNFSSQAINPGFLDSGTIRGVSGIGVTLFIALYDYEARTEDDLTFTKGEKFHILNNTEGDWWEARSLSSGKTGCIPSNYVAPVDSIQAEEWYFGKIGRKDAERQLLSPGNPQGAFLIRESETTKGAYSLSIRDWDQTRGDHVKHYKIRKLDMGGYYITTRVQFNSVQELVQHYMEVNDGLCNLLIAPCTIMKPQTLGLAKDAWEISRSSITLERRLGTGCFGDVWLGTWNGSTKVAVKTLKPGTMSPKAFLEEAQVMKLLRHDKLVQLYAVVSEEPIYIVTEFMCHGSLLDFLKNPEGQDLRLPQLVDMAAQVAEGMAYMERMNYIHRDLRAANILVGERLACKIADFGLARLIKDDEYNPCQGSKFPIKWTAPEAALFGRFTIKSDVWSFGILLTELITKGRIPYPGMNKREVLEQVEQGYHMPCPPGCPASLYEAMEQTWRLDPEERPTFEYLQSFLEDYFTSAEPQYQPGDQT
Sequence of Cyclin-dependent kinase 6 (Q00534 whole entry): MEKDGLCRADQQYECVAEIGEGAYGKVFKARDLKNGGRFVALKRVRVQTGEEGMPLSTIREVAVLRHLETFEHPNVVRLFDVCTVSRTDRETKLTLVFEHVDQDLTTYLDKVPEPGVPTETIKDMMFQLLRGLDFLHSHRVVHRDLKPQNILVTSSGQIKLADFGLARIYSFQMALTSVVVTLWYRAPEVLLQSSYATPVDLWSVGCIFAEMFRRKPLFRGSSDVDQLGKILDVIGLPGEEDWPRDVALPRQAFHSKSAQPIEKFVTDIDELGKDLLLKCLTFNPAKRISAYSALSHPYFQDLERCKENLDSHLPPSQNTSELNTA
Sequence of Cyclin-dependent kinase 4 (P11802 whole entry): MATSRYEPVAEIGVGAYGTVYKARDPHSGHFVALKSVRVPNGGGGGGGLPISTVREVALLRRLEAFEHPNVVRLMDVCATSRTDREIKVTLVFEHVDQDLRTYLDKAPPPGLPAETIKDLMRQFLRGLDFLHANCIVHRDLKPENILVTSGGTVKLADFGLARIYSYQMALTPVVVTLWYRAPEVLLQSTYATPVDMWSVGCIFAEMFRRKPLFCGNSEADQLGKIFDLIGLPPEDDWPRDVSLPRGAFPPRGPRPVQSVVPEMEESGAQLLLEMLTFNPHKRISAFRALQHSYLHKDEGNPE
Sequence of Leukocyte tyrosine kinase receptor (Homo sapiens) (P29376 whole entry): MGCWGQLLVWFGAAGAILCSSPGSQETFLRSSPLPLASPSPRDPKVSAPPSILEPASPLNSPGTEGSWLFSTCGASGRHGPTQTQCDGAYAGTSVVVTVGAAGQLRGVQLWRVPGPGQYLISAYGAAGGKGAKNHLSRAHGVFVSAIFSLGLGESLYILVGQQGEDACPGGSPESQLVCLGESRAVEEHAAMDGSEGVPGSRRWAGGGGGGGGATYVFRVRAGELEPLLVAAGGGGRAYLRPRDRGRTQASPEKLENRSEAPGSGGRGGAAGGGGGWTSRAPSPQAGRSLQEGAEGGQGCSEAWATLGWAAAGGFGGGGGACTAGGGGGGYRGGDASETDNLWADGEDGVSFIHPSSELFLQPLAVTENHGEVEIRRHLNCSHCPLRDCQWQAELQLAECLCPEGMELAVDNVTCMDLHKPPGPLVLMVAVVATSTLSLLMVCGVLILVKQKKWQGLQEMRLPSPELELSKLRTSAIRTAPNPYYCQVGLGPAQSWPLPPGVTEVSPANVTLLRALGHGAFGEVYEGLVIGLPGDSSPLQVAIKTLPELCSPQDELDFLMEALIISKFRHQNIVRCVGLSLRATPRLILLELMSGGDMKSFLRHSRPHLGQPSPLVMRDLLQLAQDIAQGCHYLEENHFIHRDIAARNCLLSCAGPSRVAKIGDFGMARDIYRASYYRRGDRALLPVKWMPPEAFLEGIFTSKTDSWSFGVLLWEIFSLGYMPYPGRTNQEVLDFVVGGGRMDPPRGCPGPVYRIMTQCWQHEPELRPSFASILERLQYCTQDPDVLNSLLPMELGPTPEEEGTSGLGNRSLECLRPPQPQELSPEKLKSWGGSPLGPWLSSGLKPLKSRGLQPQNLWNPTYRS
Sequence of Platelet-derived growth factor receptor alpha (P16234 whole entry): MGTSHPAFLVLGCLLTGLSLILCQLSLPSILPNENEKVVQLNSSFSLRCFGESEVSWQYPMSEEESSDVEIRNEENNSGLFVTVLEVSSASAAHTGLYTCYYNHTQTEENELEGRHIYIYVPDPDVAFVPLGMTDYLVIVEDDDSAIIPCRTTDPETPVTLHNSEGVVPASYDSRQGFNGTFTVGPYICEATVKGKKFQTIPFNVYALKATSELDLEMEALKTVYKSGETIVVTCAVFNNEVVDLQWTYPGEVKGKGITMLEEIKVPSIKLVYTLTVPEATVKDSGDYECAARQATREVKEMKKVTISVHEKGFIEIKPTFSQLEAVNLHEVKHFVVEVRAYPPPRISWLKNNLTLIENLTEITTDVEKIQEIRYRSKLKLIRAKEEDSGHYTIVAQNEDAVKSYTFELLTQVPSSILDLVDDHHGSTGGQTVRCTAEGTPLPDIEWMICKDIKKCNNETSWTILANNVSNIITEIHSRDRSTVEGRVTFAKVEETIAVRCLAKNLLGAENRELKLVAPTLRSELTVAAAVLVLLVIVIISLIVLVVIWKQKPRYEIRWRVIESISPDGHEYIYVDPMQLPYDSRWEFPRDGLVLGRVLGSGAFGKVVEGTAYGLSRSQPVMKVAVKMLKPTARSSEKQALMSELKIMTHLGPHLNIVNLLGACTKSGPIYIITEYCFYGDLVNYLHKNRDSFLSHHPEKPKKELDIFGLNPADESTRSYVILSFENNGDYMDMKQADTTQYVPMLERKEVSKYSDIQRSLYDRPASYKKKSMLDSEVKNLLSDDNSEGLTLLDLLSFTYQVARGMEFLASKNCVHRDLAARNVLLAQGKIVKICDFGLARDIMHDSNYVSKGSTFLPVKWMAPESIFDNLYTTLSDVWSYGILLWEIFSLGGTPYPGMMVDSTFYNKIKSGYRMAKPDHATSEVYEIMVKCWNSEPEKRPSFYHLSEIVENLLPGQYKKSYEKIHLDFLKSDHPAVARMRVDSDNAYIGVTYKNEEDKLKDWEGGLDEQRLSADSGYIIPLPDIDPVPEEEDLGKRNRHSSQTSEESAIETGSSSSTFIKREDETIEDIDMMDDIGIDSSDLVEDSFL

As to `CCCNc1nc(Nc2ccc(C#N)cc2)ncc1C#CCCCNC(=O)[C@H](C)N(C)C(=O)/C=C/CN(C)C` [FF-10101], the concentration for 50% growth inhibition (GI50) in [1] was determined as 0.81 nM; in [3], 1.1 nM; in [4], 5.3 nM; in assay [6], 3.5 nM; in assay [7], 10 nM. Further, the concentration for half-maximal inhibition (IC50) in assay [2] is 1.9 nM; in assay [5], 0.32 nM.

Consider `COc1cc2ncc(-c3cccc(NC4CCNC4)n3)n2cc1-c1cnn(C)c1` (centres undefined), for which the IC50 was 0.6 nM in assay [8], 1.1 nM in assay [9], 0.7 nM in assay [10] and below 0.5 nM in assay [11].

Take `C[C@H]1CC[C@@H](n2c3cnccc3c3cnc(Nc4ccc5c(n4)CCN(C(=O)CO)C5)nc32)CC1`: the half-inhibitory concentration (IC50) stood at 1 nM in [12]; 8 nM in [13]; 3 nM in [15]; 375 nM in [16]; 18 nM with MV4-11 [17]; 9 nM in the assay on MV4-11 [20]. Also, the Kd in [14] stood at 1 nM; in assay [18], 1 nM; in [19], 4 nM.

For `FC(F)(F)c1ccc(CNc2ccc(Cc3c[nH]c4ncc(Cl)cc34)cn2)cn1` [PEXIDARTINIB], the half-maximal inhibitory concentration (IC50) is 0.17 nM in the assay with BaF3 [21]; 97 nM in the assay with BaF3 [22]; 4700 nM in the assay with BaF3 [23]; 2.5 nM with BaF3 [24]; 130 nM with BaF3 [25]; 350 nM in the assay on MOLM-14 [26]. For the same molecule, the IC50 in the assay with MV4-11 [27] came out at 200 nM; in the assay on BaF3 [28], 0.19 nM; in the assay on MOLM-14 [29], 670 nM.

Consider `C1=N/C2=N/c3ccc(OCCN4CCCC4)c(c3)COC/C=C/COCc3cccc(c3)C(=C1)N2` [PACRITINIB], for which the IC50 with BaF3 [30] came out at 133 nM; in the assay on BaF3 [31], 306 nM; in the assay with BaF3 [32], 291 nM; with MOLM-13 [33], 173 nM; in the assay with BaF3 [34], 434 nM; with MOLM-13 [35], 73 nM.

For `COc1cc2c(Oc3ccc(NC(=O)Nc4cccc(C)c4)cc3F)ccnc2cc1OCCCN1CCOCC1`, the IC50 amounted to 0.17 nM in the assay with BaF3 [21]; 1.1 nM in the assay with BaF3 [22]; 22 nM in the assay on BaF3 [23]; 2.5 nM with BaF3 [24]; 0.22 nM with BaF3 [25]; 0.13 nM with MOLM-14 [26]. The half-inhibitory concentration (IC50) came out at 0.14 nM in the assay on MV4-11 [27], 0.19 nM in the assay on BaF3 [28] and 7 nM in assay [19].

For `Cc1nn(C)cc1-c1nc2c(N3CCN(Cc4ccc(Cl)cc4)CC3)c(Cl)cnc2[nH]1` [MOBINITINIB], the results for the GI50 in the assay with MOLM-13 [36] and with MOLM-13 [37] were 180 nM and 100 nM, respectively.

Take `CCc1nc(C(N)=O)c(Nc2ccc(N3CCC(N4CCN(C)CC4)CC3)c(OC)c2)nc1NC1CCOCC1` [GILTERITINIB]: the values for the 50% inhibitory concentration (IC50) (in the assay with BaF3 [38]; in the assay with BaF3 [39]; in assay [40]) were 2.1 nM, 1.8 nM and 0.35 nM, respectively.
